From patent US20210395312A1, “QUANTUM CONFINED PEPTIDE ASSEMBLIES AND USES THEREOF” (Ramot at Tel-Aviv University Ltd., priority 2019, published 2021)
Where “and” joins values, the source holds several entries; their conditions need not be identical. Identical values can stand only once.

Columns and labels:
Type in all cases: physicochemical
[1] = Fluorescence photostability
Method: Fluorescence photostability: Fluorescence emission spectra were measured at different time points (1 day, 7 days and 14 days). The excitation and emission slit widths were each set at 5 nm. Three measurements were performed and averaged for accuracy.

[2] = Fluorescence photobleaching; details: continuous irradiation for 600 seconds
Method: The fluorescence emission data was collected at 80 points per second for 10 minutes. The excitation and emission slit widths were each set at 5 nm. At least three measurements were performed and averaged for accuracy.

[3] = Quantum yield (QY) measurement; details: MeOH; excitation set at 350 nm if maximal excitation less than 350 nm
Method: Quantum yield (QY) measurement: 5 mL sample solution was pipetted into a 1.0 cm path-length quartz cuvette with a tube (Hellma, Müllheim, Germany), and the absolute quantum yield was measured on an absolute PL quantum yield spectrometer C11347 (Hamamatsu Photonics, Shizuoka, Japan) at ambient temperature. The relevant blanks, namely anhydrous MeOH, MeOH solutions of ZnCl2 (CuCl2), or DMSO solution of ZnCl2, were used as background and subtracted. At least five measurements were performed and averaged for accuracy.
(§1) Fluorescence spectroscopy and quantum yield (QY) measurement: 600 μL sample solution was pipetted into a 1.0 cm path-length quartz cuvette, and the spectrum was collected using a FluoroMax-4 Spectrofluorometer (Horiba Jobin Yvon, Kyoto, Japan) at ambient temperature. The excitation and emission wavelengths were set at 300-500 nm and 400-650 nm, respectively, with a slit of 2 nm. Absolute fluorescence QY measurements were performed using Quanta-Phi integrating sphere connected to Fluoromex-4.

[4] = Morphology and size of self-assemblies (AFM, DLS, TEM); details: self-assemblies in MeOH
Method: Dynamic light scattering (DLS): 850 μL of the sample solution was introduced into a DTS1070 folded capillary cell (Malvern, Worcestershire, U.K.), and the size was measured using a Zetasizer Nano ZS analyzer (Malvern Instruments, Malvern, UK) at 25.0° C. and a backscatter detector (173°). Three measurements were performed and averaged for accuracy.
Atomic force microscopy (AFM): 4 μL of sample solution was dropped onto a freshly cleaved mica surface and let it dry. The mica was then rinsed with water and purged dried gently with nitrogen. A topographic image was recorded under a NanoWizard 3 BioScience AFM (JPK, Berlin, Germany) in the tapping mode at ambient temperature, with 512×512 pixel resolution and a scanning speed of 1.0 Hz.
Transmission electron microscopy (TEM): A carbon-coated copper grid was placed on a 10 μL cyclo-dipeptide droplet for 1 minute and then blotted. Next, the washed grid was placed on a 10 μL droplet containing 4% (w/v) uranyl acetate solution for 1 min and then blotted. Samples were examined using Tecnai G2 Spirit TEM (FEI) at 80 kV.
Atomic force microscopy (AFM): 5 μL of sample solution was dropped onto a freshly cleaved mica surface and dried by N2 purge (99.99%). The mica was then rinsed with water and gently purge dried with nitrogen. A topographic image was recorded under a Dimension icon AFM (Bruker) in the tapping mode at ambient temperature, with a 512×512-pixel resolution and a scanning speed of 1.0 Hz. Nanoscope Analysis software was used for data collection and analysis.
For cyclo-dipeptide-Zn structures, aliquots (10 μL) of cyclo-dipeptide-Zn were added into a glow discharge copper grid (400 mesh) coated with a thin carbon film for 2 minutes. Excess solution was then removed, and the grid was washed three times with deionized water. TEM images were viewed using a FEI Tecnai F20 electron microscope operating at 80 kV.

[5] = Fluorescent decay measurement (lifetime); details: MeOH; for Lifetime (τ): at maximal excitation and emission
Method: Fluorescent decay measurement (lifetime): 600 μL sample solution was pipetted into a 1.0 cm path-length quartz cuvette, and the spectrum was collected using a FluoroMax-4 Spectrofluorometer (Horiba Jobin Yvon, Kyoto, Japan) equipped with a NanoLED laser excitation source at ambient temperature. The wavelength was set as the maximum excitation and emission of the samples, and a LUDOX sample (silica beads, 2 μm) was used as the prompt. The lifetime was determined by fitting the fluorescent decay data from the DAS6 Analysis software (Horiba Jobin Yvon, Kyoto, Japan). Three measurements were performed and averaged for accuracy.

[6] = Fluorescence characterization (excitation/emission) of self-assemblies; details: for Emission (λEm): maximal emission; for Emission (λEm) / Excitation (λEx) / fluorescent emission: MeOH; for Excitation (λEx): maximal excitation; for fluorescent emission: excited at 370 nm
Method: UV-Visible fluorescence characterization: 600 μL sample solution was pipetted into a 1.0 cm path-length quartz cuvette, and the spectrum was collected using a FluoroMax-4 Spectrofluorometer (Horiba Jobin Yvon, Kyoto, Japan) at ambient temperature. For molecular fluorescence of some experiments, the emission wavelength was set at 350 nm with a slit of 3 nm, and the excitation wavelength was set at 200-330 nm with a slit of 3 nm. For self-assembly fluorescence, the excitation wavelength was set at 370 nm with a slit of 3 nm, and the emission wavelength was set at 380-700 nm with a slit of 3 nm. For excitation-dependent maximal emission evolution experiment, the excitation wavelengths were set at 300-450 nm with a slit of 3 nm, and the emission wavelengths were set at 380-600 nm with a slit of 3 nm. According to the samples, anhydrous MeOH or MeOH solution of ZnCl2 (CuCl2) was used as background and subtracted. At least five measurements were performed and averaged for accuracy. Emission and excitation wavelengths, slit dimensions and background solutions were adjusted per the measured sample and are as indicated below. […]
as §1

[7] = emission band 380 (strong), excitation 320 nm
[8] = emission band 465 (weak), excitation 370 nm
[9] = emission band 425, excitation 340 nm
[10] = emission band 520, excitation 420 nm

With `CC1(C)C(/C=C/C=C/C=C/C=C2\N(CCCCS(=O)(=O)O)c3ccc4ccccc4c3C2(C)C)=[N+](CCCCS(=O)(=O)[O-])c2ccc3ccccc3c21` [ICG, indocyanine green] the “fluorescence after exposure to natural light (photostability)” value ([1]; after 1 day) was “lost all fluorescence” and the “photoluminescence after continuous irradiation (photobleaching)” value [2] was “significant fluorescence decay”.

For “phenylalanine-tyrosine cyclic dipeptide [cyclo-FY]”, the QY [3] was 3%, the Structures [4] was “nanofibers” and the “Lifetime (τ)” value [5] was 0.022 ± 0.003 ns. The “Emission (λEm)” value [6] was 430 nm and the “Excitation (λEx)” value [6] was 350 nm.

For “tryptophan-tryptophan cyclic dipeptide [cyclo-WW]”, the Structures [4] was “nanospheres”, the “Lifetime (τ)” value [5] was 5.45 ± 0.03 ns and the fluorescence lifetime ([5]; excitation 370 nm) was 5.6 ns. The fluorescent emission [6] was 425 nm and 520 nm, the “Emission (λEm)” value ([6]; emission band 440 (strong), excitation 370 nm) was 440 (strong) nm and the “Excitation (λEx)” value [6] was 370 nm.

For cyclo-dityrosine [cyclo-YY], the Structures [4] was “platelets”, the emission ([6]; DMSO, Ex 450 nm (cyclo-FF), Ex 480 nm (cyclo-YY)) was 570 nm and the “Emission (λEm)” value [6] was “no detectable emissions”.

In the case of “tryptophan-histidine cyclic dipeptide [cyclo-WH]”, the Structures [4] is reported as “nanofibers”, the “Emission (λEm)” value [6, 7] is reported as 380 (strong) nm and the “Emission (λEm)” value [6, 8] is reported as 465 (weak) nm. The “Excitation (λEx)” value [6, 7] was 320 nm and the “Excitation (λEx)” value [6, 8] was 370 nm.

In the case of cyclo-dihistidine [cyclo-HH], the QY [3] is reported as 3%, the Structures [4] is reported as “nanofibers” and the “Lifetime (τ)” value [5, 9] is reported as 4.89 ± 0.02 ns. The “Lifetime (τ)” value [5, 10] was 6.48 ± 0.04 ns, the fluorescent emission [6] was 430 nm and the “Emission (λEm)” value [6, 9] was 425 nm. For the same compound, the “Emission (λEm)” value [6, 10] was 520 nm, the “Excitation (λEx)” value [6, 9] was 340 nm and the “Excitation (λEx)” value [6, 10] was 420 nm.

In the case of cyanine 5.5 [Cy5.5], the “fluorescence lost (photostability)” value ([1]; after 1 week) is reported as 20% and the “photoluminescence after continuous irradiation (photobleaching)” value [2] is reported as “significant fluorescence decay”.

With “histidine-tyrosine cyclic dipeptide [cyclo-HY]” the Structures [4] was “nanofibers”, the “Lifetime (τ)” value [5] was 0.003 ± 0.034 ns and the “Emission (λEm)” value [6] was 390 nm. For the same compound, the “Excitation (λEx)” value [6] was 310 nm.

For “tyrosine-tryptophan cyclic dipeptide [cyclo-WY]”, the Structures [4] was “nanofibers”, the “Lifetime (τ)” value [5] was 0.232 ± 0.004 ns and the “Emission (λEm)” value [6] was 400 nm. For the same compound, the “Excitation (λEx)” value [6] was 320 nm.

For “phenylalanine-histidine cyclic dipeptide [cyclo-HF]”, the Structures [4] was “nanofibers”, the “Lifetime (τ)” value [5] was 3.29 ± 0.03 ns and the “Emission (λEm)” value [6] was 410 nm. The “Excitation (λEx)” value [6] was 340 nm.
